# PubChem BioAssay (NCI)
#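 In this assay, cells in 96-well plates receive the compound at five concentrations for 48 hours. Endpoints are linearly interpolated between the surrounding concentrations. Definition used: TGI = concentration required for complete inhibition of growth.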
# Assays:
# Assay in all cases: NCI anticancer screen, dose series, 48 h
# HL-60(TB) leukemia = test system: HL-60(TB) leukemia
# MDA-MB-435 = test system: MDA-MB-435
# NCI-H23 lung = test system: NCI-H23 lung
# SK-MEL-28 melanoma = test system: SK-MEL-28 melanoma
# HS 578T breast = test system: HS 578T breast
# EKVX NSCLC = test system: EKVX NSCLC
# K-562 leukemia = test system: K-562 leukemia
# MOLT-4 leukemia = test system: MOLT-4 leukemia
# PC-3 prostate = test system: PC-3 prostate
# NCI/ADR-RES ovarian = test system: NCI/ADR-RES ovarian
# CAKI-1 renal = test system: CAKI-1 renal
# SN12C renal = test system: SN12C renal
# HCT-15 colon = test system: HCT-15 colon
# SR leukemia = test system: SR leukemia
# SF-539 CNS = test system: SF-539 CNS
# SF-268 CNS = test system: SF-268 CNS
# SK-MEL-2 melanoma = test system: SK-MEL-2 melanoma
# A549 NSCLC = test system: A549 NSCLC
# NCI-H226 lung = test system: NCI-H226 lung
# NCI-H460 lung = test system: NCI-H460 lung
Structure (SMILES),TGI (HL-60(TB) leukemia) [µM],TGI (MDA-MB-435) [µM],TGI (NCI-H23 lung) [µM],TGI (SK-MEL-28 melanoma) [µM],TGI (HS 578T breast) [µM],TGI (EKVX NSCLC) [µM],TGI (K-562 leukemia) [µM],TGI (MOLT-4 leukemia) [µM],TGI (PC-3 prostate) [µM],TGI (NCI/ADR-RES ovarian) [µM],TGI (CAKI-1 renal) [µM],TGI (SN12C renal) [µM],TGI (HCT-15 colon) [µM],TGI (SR leukemia) [µM],TGI (SF-539 CNS) [µM],TGI (SF-268 CNS) [µM],TGI (SK-MEL-2 melanoma) [µM],TGI (A549 NSCLC) [µM],TGI (NCI-H226 lung) [µM],TGI (NCI-H460 lung) [µM]
CCOC(=O)C(NCc1cccc(C(F)(F)F)c1)(NC(=O)CC)C(F)(F)F (stereo not drawn),> 100,> 100,> 100,> 100,> 100,> 100,> 100,> 100,> 100,> 100,> 100,> 100,> 100,> 100,> 100,> 100,> 100,> 100,> 100,
c1ccc(C(=NNc2cnc3ccccc3n2)c2ccccn2)cc1,12.3,> 47.6,14.1,55.5,37.9,13.4,> 67.5,11.4,19.2,2.15,12.2,24,14.5,10.9,17.4,13.6,26.2,15,40.6,10.5
Nc1nc(Nc2ccccc2)sc1C(=O)c1cccs1,12.5,29.4,38.1,> 62.4,43.3,31.8,55.7,43.9,41.9,82,62.3,38.3,27.2,11.2,25.5,46.6,29.6,41.7,39.7,24.5
O=c1[nH]cnc2c1ncn2[C@@H]1C[C@H]1CO,> 100,> 100,> 100,> 100,> 100,> 100,> 100,> 100,> 100,> 100,> 100,> 100,> 100,> 100,> 100,> 100,> 100,> 100,> 100,> 100
C#CCCCOc1ncccn1,> 100,> 100,> 100,> 100,> 100,> 100,> 100,> 100,> 100,> 100,> 100,> 100,,> 100,> 100,> 100,> 100,> 100,> 100,
Clc1ccc(-c2ccc(-c3nn4c(CNc5ccccc5)nnc4s3)o2)c(Cl)c1,> 100,> 100,> 100,> 100,> 100,> 100,> 100,> 100,> 100,> 100,> 100,> 100,> 100,> 100,76.4,> 100,> 100,> 100,> 100,> 100
COc1ccc(/C(CC2OC(=O)c3ccccc32)=N\NC(=O)C[N+](C)(C)C)cc1 (stereo not drawn),> 100,71.9,47.7,55.5,> 100,> 100,48.4,70.2,> 100,56.7,> 100,> 100,44.8,45.4,> 100,> 100,94.2,> 100,62.6,66.7
O=C(c1cc2c(c3ccccc13)NCCN=C2C(F)(F)F)C(F)(F)F,75.4,> 100,> 100,47.8,40.6,> 100,35.4,38,33.5,> 100,> 100,,> 100,21.3,54.9,> 100,44.1,,47.1,34.4
O=c1c2cc([N+](=O)[O-])ccc2nc2n1CCCCC2,> 100,> 100,> 100,> 100,> 100,> 100,> 100,> 100,> 100,> 100,> 100,> 100,> 100,> 100,> 100,> 100,> 100,> 100,> 100,> 100
COC1CC(NC(=O)C(F)(F)F)C(OC(C)=O)C(C)O1 (stereo not drawn),> 100,> 100,> 100,> 100,> 100,> 100,> 100,> 100,> 100,> 100,> 100,> 100,> 100,> 100,> 100,> 100,> 100,> 100,> 100,> 100
O=[N+]([O-])c1cc(Cl)cc2cc(Br)cnc12,> 31.6,> 31.6,> 31.6,> 31.6,28.3,> 31.6,> 31.6,> 31.6,> 31.6,> 31.6,,> 31.6,> 31.6,> 31.6,> 31.6,,> 100,> 31.6,> 31.6,> 31.6
CN1CCN(CCCCN2c3ccccc3Sc3cc(N=[N+]=[N-])ccc32)CC1,6.08,3.17,18.7,3.52,5.02,15.1,3.04,4.12,3.57,7.86,5.32,6.46,5.68,> 100,8.31,22.4,5.04,3.93,12.6,3.8
Cc1ccc(C(=O)OCC(C)C)cc1N=NN(C)C,> 100,> 100,> 100,> 100,> 100,> 100,> 100,> 100,> 100,> 100,> 100,> 100,> 100,> 100,> 100,> 100,> 100,> 100,> 100,> 100
O=C1C(Cl)C(c2cc3cc(Br)ccc3nc2Cl)N1c1ccc(Cl)cc1 (stereo not drawn),15.5,17.7,17.2,> 25,> 25,8.13,19.8,10.6,> 25,16.7,9.3,8.8,13.3,7.46,9.41,9.69,10.4,> 25,12.3,20.9
CC(=N\N=C\c1ccccn1)/C(C)=N/N=C(C)/C(C)=N/N=C/c1ccccn1,> 100,> 100,> 100,> 100,> 100,> 100,,,> 100,> 100,> 100,> 100,> 100,> 100,> 100,> 100,> 100,> 100,> 100,> 100
C/C(=N\NC(=S)N(C)CCN(C)C(=S)N/N=C(\C)c1ccccn1)c1ccccn1,3.95,> 100,28.5,19.8,> 100,10.4,29.1,46.3,18.8,2.02,11.8,6.91,18.5,3.71,11.8,12,24.4,13.8,3.48,
NS(=O)(=O)c1ccc(Nc2c3ccccc3nc3c(C(=O)NCCO)cccc23)cc1,> 1,0.513,0.293,0.338,0.79,0.772,0.887,0.0604,0.432,> 1,0.546,0.557,0.333,0.0607,0.27,0.303,0.334,0.448,0.296,0.186
Clc1cc(Br)c2c3c(c(Br)cc(Cl)c13)C(Br)=C2Br,56,> 100,,> 100,> 100,> 100,> 100,45.6,> 100,57.8,,44.7,37.6,58.1,35.7,70.4,> 100,> 100,> 100,> 100
Cc1ccc(NC2=N/C(=C/c3ccccc3)C(Cl)=N2)cc1,> 63.3,> 100,> 100,> 100,> 100,> 100,> 100,> 100,> 100,> 100,> 100,> 100,> 100,98.2,> 100,> 100,> 100,> 100,> 100,> 100
CC(=O)OCCOc1cc2c([nH]c3ccccc32)c(C)c2cccc1-2,12.9,5.6,5.17,7.57,> 100,5.17,> 100,> 100,3.68,> 100,6.14,10.9,10.3,> 33.3,3.62,7.28,4.96,> 32.2,25,7.6
CN(C)CCCCN1c2ccccc2Sc2ccc(C(=O)c3ccccc3)cc21,3.97,3.51,34.2,3.72,9.69,15.9,3.36,6.31,6.4,11.1,5.32,9.84,9.27,> 100,6.59,17.7,6.59,7.22,22.8,5.46
[O-][n+]1onc2c1/C(=N/O)CCC2,> 100,> 100,> 100,> 100,> 100,> 100,> 100,> 100,> 100,> 100,> 100,> 100,> 100,> 100,> 100,> 100,> 100,> 100,> 100,> 100
Cc1nc2c(o1)C(=O)c1ccccc1C2=Nc1ccc(N2CCOCC2)cc1,7.24,3.58,7.62,7.69,12.5,17.4,11.6,31.5,7.37,> 29.6,42.7,10.2,15.8,13.3,6,23.6,9.63,17.8,42.1,26.8
CC(O)C1(CNc2cc(Cl)nc(N)n2)CC(CCc2ccccc2)C1 (stereo not drawn),41.7,26.6,19.4,27.8,38.4,37.3,86.4,56,25.3,21.8,29.4,20.9,24,35.8,32.6,29.4,31.7,31,30.8,27.7
